Test results as given in the NIST ThermoML archive (doi:10.1016/j.jct.2003.09.013).
Values joined by “and” are separate entries in the source; they are usually repeats but may differ in a detail not shown here. Equal values may be shown once.

Test: mn = molality of the nth substance listed, in mol/kg
Details: 350 kPa, Liquid; for molar volume: Vibrating tube method; for apparent molar heat capacity: Extra sensitive DSC

O=[N+]([O-])[O-].O=[N+]([O-])[O-].[Pb+2] [lead(II) nitrate] + O
Details | apparent molar heat capacity [J/K/mol] | apparent molar volume | molar volume
278.15 K, m1 = 0.01959 | – | 3.11e-05 m3/mol | 3.11e-05 m3/mol
278.15 K, m1 = 0.01983 | – | 3.8e-05 m3/mol | 3.8e-05 m3/mol
278.15 K, m1 = 0.02999 | – | 3.7e-05 m3/mol and 3.36e-05 m3/mol | 3.7e-05 m3/mol and 3.36e-05 m3/mol
278.15 K, m1 = 0.04862 | – | 3.8e-05 m3/mol | 3.8e-05 m3/mol
278.15 K, m1 = 0.05035 | – | 3.73e-05 m3/mol | 3.73e-05 m3/mol
278.15 K, m1 = 0.1004 | – | 3.52e-05 m3/mol and 4.01e-05 m3/mol | 4.01e-05 m3/mol and 3.52e-05 m3/mol
278.15 K, m1 = 0.2435 | – | 3.781e-05 m3/mol | 3.781e-05 m3/mol
278.15 K, m1 = 0.392 | – | 3.95e-05 m3/mol | 3.95e-05 m3/mol
278.15 K, m1 = 0.4885 | – | 4.08e-05 m3/mol | 4.08e-05 m3/mol
283.15 K, m1 = 0.01959 | – | 3.4e-05 m3/mol | 3.4e-05 m3/mol
283.15 K, m1 = 0.01983 | – | 3.8e-05 m3/mol | 3.8e-05 m3/mol
283.15 K, m1 = 0.02999 | – | 3.9e-05 m3/mol and 3.62e-05 m3/mol | 3.9e-05 m3/mol and 3.62e-05 m3/mol
283.15 K, m1 = 0.04862 | – | 3.9e-05 m3/mol | 3.9e-05 m3/mol
283.15 K, m1 = 0.05035 | – | 3.93e-05 m3/mol | 3.93e-05 m3/mol
283.15 K, m1 = 0.1004 | – | 4.14e-05 m3/mol and 3.73e-05 m3/mol | 4.14e-05 m3/mol and 3.73e-05 m3/mol
283.15 K, m1 = 0.2435 | – | 3.976e-05 m3/mol | 3.976e-05 m3/mol
283.15 K, m1 = 0.392 | – | 4.126e-05 m3/mol | 4.126e-05 m3/mol
283.15 K, m1 = 0.4885 | 4.5 | 4.243e-05 m3/mol | 4.243e-05 m3/mol
288.15 K, m1 = 0.01959 | – | 3.508e-05 m3/mol | 3.508e-05 m3/mol
288.15 K, m1 = 0.01983 | – | 3.8e-05 m3/mol | 3.8e-05 m3/mol
288.15 K, m1 = 0.02999 | – | 3.9e-05 m3/mol and 3.71e-05 m3/mol | 3.9e-05 m3/mol and 3.71e-05 m3/mol
288.15 K, m1 = 0.04862 | – | 3.96e-05 m3/mol | 3.96e-05 m3/mol
288.15 K, m1 = 0.05035 | – | 4.05e-05 m3/mol | 4.05e-05 m3/mol
288.15 K, m1 = 0.1004 | – | 4.12e-05 m3/mol and 3.851e-05 m3/mol | 4.12e-05 m3/mol and 3.851e-05 m3/mol
288.15 K, m1 = 0.2435 | – | 4.073e-05 m3/mol | 4.073e-05 m3/mol
288.15 K, m1 = 0.392 | – | 4.246e-05 m3/mol | 4.246e-05 m3/mol
288.15 K, m1 = 0.4885 | 12.8 | 4.323e-05 m3/mol | 4.323e-05 m3/mol
293.15 K, m1 = 0.4885 | 18.6 | – | –
298.15 K, m1 = 0.01959 | – | 3.86e-05 m3/mol | 3.86e-05 m3/mol
298.15 K, m1 = 0.01983 | – | 4.1e-05 m3/mol | 4.1e-05 m3/mol
298.15 K, m1 = 0.02999 | – | 4.19e-05 m3/mol and 3.835e-05 m3/mol | 4.19e-05 m3/mol and 3.835e-05 m3/mol
298.15 K, m1 = 0.04862 | – | 4.22e-05 m3/mol | 4.22e-05 m3/mol
298.15 K, m1 = 0.05035 | – | 4.377e-05 m3/mol | 4.377e-05 m3/mol
298.15 K, m1 = 0.1004 | – | 4.33e-05 m3/mol and 4.134e-05 m3/mol | 4.33e-05 m3/mol and 4.134e-05 m3/mol
298.15 K, m1 = 0.2435 | – | 4.368e-05 m3/mol | 4.368e-05 m3/mol
298.15 K, m1 = 0.392 | 2.9 | 4.54e-05 m3/mol | 4.54e-05 m3/mol
298.15 K, m1 = 0.4885 | 22.3 | 4.567e-05 m3/mol | 4.567e-05 m3/mol
303.15 K, m1 = 0.392 | 6 | – | –
303.15 K, m1 = 0.4885 | 24.9 | – | –
308.15 K, m1 = 0.01959 | – | 4.027e-05 m3/mol | 4.027e-05 m3/mol
308.15 K, m1 = 0.01983 | – | 4.04e-05 m3/mol | 4.04e-05 m3/mol
308.15 K, m1 = 0.02999 | – | 4.2e-05 m3/mol and 3.7e-05 m3/mol | 4.2e-05 m3/mol and 3.7e-05 m3/mol
308.15 K, m1 = 0.04862 | – | 4.27e-05 m3/mol | 4.27e-05 m3/mol
308.15 K, m1 = 0.05035 | – | 4.631e-05 m3/mol | 4.631e-05 m3/mol
308.15 K, m1 = 0.1004 | – | 4.39e-05 m3/mol and 4.262e-05 m3/mol | 4.39e-05 m3/mol and 4.262e-05 m3/mol
308.15 K, m1 = 0.2435 | – | 4.56e-05 m3/mol | 4.56e-05 m3/mol
308.15 K, m1 = 0.392 | 8.2 | 4.698e-05 m3/mol | 4.698e-05 m3/mol
308.15 K, m1 = 0.4885 | 26.6 | 4.739e-05 m3/mol | 4.739e-05 m3/mol
313.15 K, m1 = 0.392 | 9.6 | – | –
313.15 K, m1 = 0.4885 | 27.7 | – | –
318.15 K, m1 = 0.01959 | – | 4.413e-05 m3/mol | 4.413e-05 m3/mol
318.15 K, m1 = 0.01983 | – | 4.13e-05 m3/mol | 4.13e-05 m3/mol
318.15 K, m1 = 0.02999 | – | 4.23e-05 m3/mol and 3.71e-05 m3/mol | 4.23e-05 m3/mol and 3.71e-05 m3/mol
318.15 K, m1 = 0.04862 | – | 4.32e-05 m3/mol | 4.32e-05 m3/mol
318.15 K, m1 = 0.05035 | – | 4.763e-05 m3/mol | 4.763e-05 m3/mol
318.15 K, m1 = 0.1004 | – | 4.49e-05 m3/mol and 4.36e-05 m3/mol | 4.49e-05 m3/mol and 4.36e-05 m3/mol
318.15 K, m1 = 0.2435 | – | 4.709e-05 m3/mol | 4.709e-05 m3/mol
318.15 K, m1 = 0.392 | 10.3 | 4.824e-05 m3/mol | 4.824e-05 m3/mol
318.15 K, m1 = 0.4885 | 27.8 | 4.881e-05 m3/mol | 4.881e-05 m3/mol
323.15 K, m1 = 0.392 | 10.5 | – | –
323.15 K, m1 = 0.4885 | 27.8 | – | –
328.15 K, m1 = 0.01959 | – | 4.522e-05 m3/mol | 4.522e-05 m3/mol
328.15 K, m1 = 0.01983 | – | 4.163e-05 m3/mol | 4.163e-05 m3/mol
328.15 K, m1 = 0.02999 | – | 4.215e-05 m3/mol and 3.58e-05 m3/mol | 4.215e-05 m3/mol and 3.58e-05 m3/mol
328.15 K, m1 = 0.04862 | – | 4.365e-05 m3/mol | 4.365e-05 m3/mol
328.15 K, m1 = 0.05035 | – | 4.871e-05 m3/mol | 4.871e-05 m3/mol
328.15 K, m1 = 0.1004 | – | 4.523e-05 m3/mol and 4.39e-05 m3/mol | 4.523e-05 m3/mol and 4.39e-05 m3/mol
328.15 K, m1 = 0.2435 | – | 4.806e-05 m3/mol | 4.806e-05 m3/mol
328.15 K, m1 = 0.392 | 10.3 | 4.911e-05 m3/mol | 4.911e-05 m3/mol
328.15 K, m1 = 0.4885 | 27.3 | 4.978e-05 m3/mol | 4.978e-05 m3/mol
333.15 K, m1 = 0.392 | 10 | – | –
333.15 K, m1 = 0.4885 | 26.8 | – | –
338.15 K, m1 = 0.01959 | – | 4.5e-05 m3/mol | 4.5e-05 m3/mol
338.15 K, m1 = 0.01983 | – | 4.114e-05 m3/mol | 4.114e-05 m3/mol
338.15 K, m1 = 0.02999 | – | 4.265e-05 m3/mol and 3.58e-05 m3/mol | 4.265e-05 m3/mol and 3.58e-05 m3/mol
338.15 K, m1 = 0.04862 | – | 4.42e-05 m3/mol | 4.42e-05 m3/mol
338.15 K, m1 = 0.05035 | – | 4.942e-05 m3/mol | 4.942e-05 m3/mol
338.15 K, m1 = 0.1004 | – | 4.599e-05 m3/mol and 4.45e-05 m3/mol | 4.599e-05 m3/mol and 4.45e-05 m3/mol
338.15 K, m1 = 0.2435 | – | 4.89e-05 m3/mol | 4.89e-05 m3/mol
338.15 K, m1 = 0.392 | 9.1 | 4.981e-05 m3/mol | 4.981e-05 m3/mol
338.15 K, m1 = 0.4885 | 25.9 | 5.059e-05 m3/mol | 5.059e-05 m3/mol
343.15 K, m1 = 0.392 | 8 | – | –
343.15 K, m1 = 0.4885 | 24.7 | – | –
348.15 K, m1 = 0.01959 | – | 4.33e-05 m3/mol | 4.33e-05 m3/mol
348.15 K, m1 = 0.02999 | – | 3.57e-05 m3/mol | 3.57e-05 m3/mol
348.15 K, m1 = 0.05035 | – | 4.93e-05 m3/mol | 4.93e-05 m3/mol
348.15 K, m1 = 0.1004 | – | 4.662e-05 m3/mol and 4.47e-05 m3/mol | 4.662e-05 m3/mol and 4.47e-05 m3/mol
348.15 K, m1 = 0.2435 | – | 4.92e-05 m3/mol | 4.92e-05 m3/mol
348.15 K, m1 = 0.392 | 6.7 | 5.034e-05 m3/mol | 5.034e-05 m3/mol
348.15 K, m1 = 0.4885 | 23.3 | 5.112e-05 m3/mol | 5.112e-05 m3/mol
353.15 K, m1 = 0.392 | 5.2 | – | –
353.15 K, m1 = 0.4885 | 22 | – | –
358.15 K, m1 = 0.01959 | – | 4.397e-05 m3/mol | 4.397e-05 m3/mol
358.15 K, m1 = 0.02999 | – | 3.55e-05 m3/mol | 3.55e-05 m3/mol
358.15 K, m1 = 0.05035 | – | 4.866e-05 m3/mol | 4.866e-05 m3/mol
358.15 K, m1 = 0.1004 | – | 4.48e-05 m3/mol and 4.513e-05 m3/mol | 4.48e-05 m3/mol and 4.513e-05 m3/mol
358.15 K, m1 = 0.2435 | – | 4.929e-05 m3/mol | 4.929e-05 m3/mol
358.15 K, m1 = 0.392 | 3.8 | 5.016e-05 m3/mol | 5.016e-05 m3/mol
358.15 K, m1 = 0.4885 | 20.5 | 5.11e-05 m3/mol | 5.11e-05 m3/mol
363.15 K, m1 = 0.392 | 2.1 | – | –
363.15 K, m1 = 0.4885 | 18.8 | – | –
368.15 K, m1 = 0.01959 | – | 4.451e-05 m3/mol | 4.451e-05 m3/mol
368.15 K, m1 = 0.02999 | – | 3.49e-05 m3/mol | 3.49e-05 m3/mol
368.15 K, m1 = 0.05035 | – | 4.751e-05 m3/mol | 4.751e-05 m3/mol
368.15 K, m1 = 0.1004 | – | 4.02e-05 m3/mol and 4.44e-05 m3/mol | 4.02e-05 m3/mol and 4.44e-05 m3/mol
368.15 K, m1 = 0.2435 | – | 4.902e-05 m3/mol | 4.902e-05 m3/mol
368.15 K, m1 = 0.392 | – | 4.883e-05 m3/mol | 4.883e-05 m3/mol
368.15 K, m1 = 0.4885 | 16.9 | 5.055e-05 m3/mol | 5.055e-05 m3/mol
373.15 K, m1 = 0.4885 | 14.8 | – | –
378.15 K, m1 = 0.4885 | 12.1 | – | –
383.15 K, m1 = 0.4885 | 9.5 | – | –
388.15 K, m1 = 0.4885 | 6.8 | – | –
393.15 K, m1 = 0.4885 | 3.2 | – | –
